One assay concerns the target Cannabinoid receptor 1 (Homo sapiens, UniProt P21554). As to the kind of experiment: Displacement of [3H]CP55,940 from human recombinant CB1 receptor expressed in HEK293 cell membranes after 90 mins. Background: Loss of bound radioactivity is the signal in a displacement assay; it reports binding, not function.
Assay [1] concerns the target T1, Cannabinoid receptor 2 (Homo sapiens, UniProt P34972). As to the kind of experiment: Competitive antagonist activity at human CB2 receptor expressed in CHO membranes assessed as inhibition of HU-210-induced [35S]GTPgammaS binding by Schild-plot. It is filed as functional, cell membranes. The following applies: read-out: pA2 (converted).
For assay [2], the target named is T1, Cannabinoid receptor 2. As to the kind of experiment: Activity at human CB2 receptor expressed in CHO cell membranes by [35S]GTPgammaS binding assay. It is filed as functional. For orientation: GTPγS is a poorly hydrolysed GTP analogue; its binding reports G protein activation.
The target of assay [3] is T1, Cannabinoid receptor 2. As to the kind of experiment: Displacement of [3H]CP55,940 from human recombinant CB2 receptor expressed in HEK293 cell membranes after 90 mins.
In assay [4] the target is T1, Cannabinoid receptor 2. In words: Neutral antagonist activity at human CB2 receptor expressed in CHO membranes assessed as inhibition of inverse agonist SR144528-induced responses by [35S]GTPgammaS binding assay. The class given is functional, cell membranes.
Assay [5] has as its target T1, Cannabinoid receptor 2. As to the kind of experiment: Antagonist activity at human CB2 receptor expressed in CHO cell membranes assessed as inhibition of HU-210-induced [35S]GTPgammaS binding. It is filed as functional.
Another assay deals with HEK293. As to the kind of experiment: Selectivity index, ratio of Ki for human recombinant CB1 receptor expressed in HEK293 cell membranes to Ki for human recombinant CB2 receptor expressed in HEK293 cell membranes. The class given is cell-based.
The target in assay [6] is T1, Cannabinoid receptor 2. As to the kind of experiment: Neutral antagonist activity at human CB2 receptor expressed in CHO membranes assessed as inhibition of agonist HU-210-induced responses by [35S]GTPgammaS binding assay. The class given is functional, cell membranes.
Assay [7] concerns the target T1, Cannabinoid receptor 2. As to the kind of experiment: Agonist activity at human CB2 receptor expressed in CHO cell membranes by [35S]GTPgammaS binding assay. The class given is functional.
The target in assay [8] is Cannabinoid receptor 1 (Rattus norvegicus) (UniProt P20272). In words: Antagonist activity at CB1 receptor in rat cerebellar membranes assessed as inhibition of HU-210-induced [35S]GTPgammaS binding at 10 uM. The class given is functional, cell membranes. Particulars: Cerebellum, Membrane.
Assay [9] shares this target. In words: Agonist activity at CB1 receptor in rat cerebellar membranes at < 10 uM by [35S]GTPgammaS binding assay. The class given is functional, cell membranes. Particulars: Cerebellum, Membrane.

What is called Ki is the equilibrium dissociation constant of an inhibitor or competing ligand from its target. For orientation: EC50 means the concentration that produces a half-maximal response. A lower EC50 goes with higher potency in that assay.

Active and inactive are the calls of the source. No cut-off for these calls is given here.

T1 sequence (P34972 whole entry): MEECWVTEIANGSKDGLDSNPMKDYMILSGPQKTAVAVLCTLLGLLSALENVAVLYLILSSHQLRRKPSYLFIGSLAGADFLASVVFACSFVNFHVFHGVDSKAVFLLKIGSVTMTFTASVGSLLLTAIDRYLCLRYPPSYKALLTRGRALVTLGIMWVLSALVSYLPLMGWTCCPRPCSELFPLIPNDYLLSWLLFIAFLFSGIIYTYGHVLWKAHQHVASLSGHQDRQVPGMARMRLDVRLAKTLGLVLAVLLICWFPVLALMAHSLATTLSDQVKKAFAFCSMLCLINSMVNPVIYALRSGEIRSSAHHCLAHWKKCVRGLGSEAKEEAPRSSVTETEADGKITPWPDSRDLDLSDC
Sequence of Cannabinoid receptor 1 (P21554 whole entry): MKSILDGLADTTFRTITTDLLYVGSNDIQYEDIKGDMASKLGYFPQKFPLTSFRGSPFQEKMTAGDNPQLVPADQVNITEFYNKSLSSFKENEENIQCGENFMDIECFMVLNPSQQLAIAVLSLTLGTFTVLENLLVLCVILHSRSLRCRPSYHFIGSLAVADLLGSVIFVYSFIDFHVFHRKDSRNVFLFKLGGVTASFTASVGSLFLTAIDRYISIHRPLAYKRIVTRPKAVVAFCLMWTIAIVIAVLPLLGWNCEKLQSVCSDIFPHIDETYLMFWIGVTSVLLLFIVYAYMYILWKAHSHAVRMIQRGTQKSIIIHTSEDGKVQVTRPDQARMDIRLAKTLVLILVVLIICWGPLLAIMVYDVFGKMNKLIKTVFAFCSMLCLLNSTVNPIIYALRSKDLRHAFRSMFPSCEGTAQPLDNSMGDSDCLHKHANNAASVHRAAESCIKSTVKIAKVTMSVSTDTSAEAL
Sequence of Cannabinoid receptor 1 (Rattus norvegicus) (P20272 whole entry): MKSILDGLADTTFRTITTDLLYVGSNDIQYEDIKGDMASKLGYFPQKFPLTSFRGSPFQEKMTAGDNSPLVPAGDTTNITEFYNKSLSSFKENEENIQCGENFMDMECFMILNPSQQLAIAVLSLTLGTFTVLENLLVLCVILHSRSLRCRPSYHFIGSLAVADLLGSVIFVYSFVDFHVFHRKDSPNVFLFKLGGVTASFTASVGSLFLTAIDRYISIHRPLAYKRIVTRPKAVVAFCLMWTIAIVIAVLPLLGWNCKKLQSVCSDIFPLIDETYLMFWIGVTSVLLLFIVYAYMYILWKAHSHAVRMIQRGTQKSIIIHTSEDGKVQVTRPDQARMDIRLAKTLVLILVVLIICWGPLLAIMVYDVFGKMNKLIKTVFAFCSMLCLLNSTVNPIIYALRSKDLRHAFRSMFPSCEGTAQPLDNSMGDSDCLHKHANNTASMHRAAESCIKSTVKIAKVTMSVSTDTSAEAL

Consider `CCCCc1cc(-c2ccc(OC)cc2)cc(C(=O)NC2CCCCCC2)c1OC`, for which the Ki at Cannabinoid receptor 1 worked out at 1490 nM; on Cannabinoid receptor 2 [3], 11.5 nM. Also, the Kb on Cannabinoid receptor 2 [1] was 794 nM. Also, the result on Cannabinoid receptor 2 [2] was inactive. For the same compound, the inhibition result at Cannabinoid receptor 2 [4] and on Cannabinoid receptor 2 [6] was “Dose-dependent effect” each time. The inhibition entry on Cannabinoid receptor 2 [5] is “Active”. In the assay with HEK293, the Ratio Ki came out at 130.
`CCCC(C)(C)c1ccc2c(c1)OC(C)(C)[C@@H]1CC=C(C)C[C@@H]21`: the Ratio Ki in the assay on HEK293 was 226.
On to `COc1c(C)cc(-c2ccccc2)cc1C(=O)N[C@H]1CC[C@H](C)CC1`, for which the Ki at Cannabinoid receptor 1 stood at 1530 nM; on Cannabinoid receptor 2 [3] it was 90 nM. Also, the Ratio Ki with HEK293 came out at 17.
For `COc1ccc(-c2cc(C)c(OC)c(C(=O)NC3CCCCCC3)c2)cc1`, the Ki at Cannabinoid receptor 1 and at Cannabinoid receptor 2 [3] was > 10000 nM throughout.
Turning to `COc1ccc(-c2cc(C)c(OC)c(C(=O)N[C@H]3CC[C@H](C)CC3)c2)cc1`, the Ki at Cannabinoid receptor 1 and on Cannabinoid receptor 2 [3] was > 10000 nM each time.
`COc1c(C)cc(-c2ccccc2)cc1C(=O)N[C@H]1CC[C@@H](C)CC1`: the Ki was found to be 1090 nM at Cannabinoid receptor 1 and 150 nM at Cannabinoid receptor 2 [3]. Besides, the Ratio Ki in the assay with HEK293 was found to be 7.27.
On to `CCCCc1cc(-c2ccc(OC)cc2)cc(C(=O)N[C@H]2CC[C@H](C)CC2)c1OC`, for which the Ki stood at 2290 nM at Cannabinoid receptor 1 and 143 nM at Cannabinoid receptor 2 [3]. Moreover, the outcome on Cannabinoid receptor 2 [2] was inactive. Also, at Cannabinoid receptor 2 [5], the inhibition result is “Active”. In the assay with HEK293, the Ratio Ki turned out to be 16.
In the case of `COc1c(C)cc(-c2ccc(F)cc2)cc1C(=O)N[C@H]1CC[C@@H](C)CC1`, the Ki on Cannabinoid receptor 1 stood at 180 nM; at Cannabinoid receptor 2 [3], 60 nM. For the same compound, the EC50 at Cannabinoid receptor 2 [7] was 398 nM. The inhibition result in assay [8] is “Active”. The outcome in assay [9] was inactive. Also, in the assay with HEK293, the Ratio Ki came out at 3.
Take `COc1c(C)cc(-c2ccc(F)cc2)cc1C(=O)N[C@H]1CC[C@H](C)CC1`: the results for the Ki on Cannabinoid receptor 1 and on Cannabinoid receptor 2 [3] were 620 nM and 90 nM, respectively. For the same compound, the Ratio Ki in the assay with HEK293 is 6.89.
For `CCCCc1cc(-c2ccc(OC)cc2)cc(C(=O)N[C@H]2CC[C@@H](C)CC2)c1OC`, the Ki amounted to 1550 nM at Cannabinoid receptor 1 and 22 nM at Cannabinoid receptor 2 [3]. The outcome on Cannabinoid receptor 2 [2] was inactive. Moreover, the inhibition result on Cannabinoid receptor 2 [5] was “Active”. For the same compound, the Ratio Ki in the assay on HEK293 amounted to 70.
Regarding `COc1c(C)cc(-c2ccc(F)cc2)cc1C(=O)NC1CCCCCC1`, the Ki on Cannabinoid receptor 1 came out at 160 nM; on Cannabinoid receptor 2 [3], 60 nM. The same compound showed an EC50 on Cannabinoid receptor 2 [7] of 398 nM. In addition, the inhibition result in assay [8] is “Active”. Moreover, the result in [9] was inactive. In addition, the Ratio Ki in the assay with HEK293 was 2.67.
For `COc1ccc(-c2cc(C)c(OC)c(C(=O)N[C@H]3CC[C@@H](C)CC3)c2)cc1`, the Ki on Cannabinoid receptor 1 and at Cannabinoid receptor 2 [3] was > 10000 nM each time.
Regarding `COc1c(C)cc(-c2ccccc2)cc1C(=O)NC1CCCCCC1`, the Ki on Cannabinoid receptor 1 amounted to 870 nM; on Cannabinoid receptor 2 [3], 100 nM. Moreover, the Ratio Ki in the assay on HEK293 came to 8.7.
